Test results taken from article PMC6437697 (Journal of Medicinal Chemistry, 2019).

Key:
Experiment in all cases: KINOMEscan
Format in all cases: binding
Conditions in all cases: read-out: % control activity remaining
TAK1 = target: T1, TAK1 (Homo sapiens, UniProt O43318)
T1 construct: purchased Eurofins DiscoverX KINOMEscan
T1 sequence (O43318 1-606): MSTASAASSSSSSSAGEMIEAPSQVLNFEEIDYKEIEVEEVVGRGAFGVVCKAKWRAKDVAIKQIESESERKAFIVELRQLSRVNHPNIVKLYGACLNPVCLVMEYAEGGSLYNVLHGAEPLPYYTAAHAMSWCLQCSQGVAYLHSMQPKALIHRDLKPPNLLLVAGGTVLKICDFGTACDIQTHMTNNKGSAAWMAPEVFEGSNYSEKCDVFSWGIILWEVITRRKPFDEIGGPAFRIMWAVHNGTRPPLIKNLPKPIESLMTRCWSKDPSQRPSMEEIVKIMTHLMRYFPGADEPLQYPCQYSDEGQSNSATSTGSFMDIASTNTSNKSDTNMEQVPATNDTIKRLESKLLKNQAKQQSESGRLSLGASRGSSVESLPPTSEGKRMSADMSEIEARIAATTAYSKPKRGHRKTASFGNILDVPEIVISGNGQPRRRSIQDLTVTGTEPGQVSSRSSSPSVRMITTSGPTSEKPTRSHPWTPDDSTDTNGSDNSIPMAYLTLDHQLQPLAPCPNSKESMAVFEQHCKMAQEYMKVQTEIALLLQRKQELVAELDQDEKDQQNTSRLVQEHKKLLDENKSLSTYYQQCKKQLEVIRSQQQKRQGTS

YANK1 = target: T2, YANK1 (Homo sapiens, UniProt Q8WU08)
T2 construct: purchased Eurofins DiscoverX KINOMEscan

PRP4 = target: T3, PRP4 (Homo sapiens, UniProt Q13523)
T3 construct: purchased Eurofins DiscoverX KINOMEscan

DYRK1B = target: T4, DYRK1B (Homo sapiens, UniProt Q9Y463)
T4 construct: purchased Eurofins DiscoverX KINOMEscan

ASK2 = target: T5, ASK2 (Homo sapiens, UniProt O95382)
T5 construct: purchased Eurofins DiscoverX KINOMEscan
T5 sequence (O95382 1-1288): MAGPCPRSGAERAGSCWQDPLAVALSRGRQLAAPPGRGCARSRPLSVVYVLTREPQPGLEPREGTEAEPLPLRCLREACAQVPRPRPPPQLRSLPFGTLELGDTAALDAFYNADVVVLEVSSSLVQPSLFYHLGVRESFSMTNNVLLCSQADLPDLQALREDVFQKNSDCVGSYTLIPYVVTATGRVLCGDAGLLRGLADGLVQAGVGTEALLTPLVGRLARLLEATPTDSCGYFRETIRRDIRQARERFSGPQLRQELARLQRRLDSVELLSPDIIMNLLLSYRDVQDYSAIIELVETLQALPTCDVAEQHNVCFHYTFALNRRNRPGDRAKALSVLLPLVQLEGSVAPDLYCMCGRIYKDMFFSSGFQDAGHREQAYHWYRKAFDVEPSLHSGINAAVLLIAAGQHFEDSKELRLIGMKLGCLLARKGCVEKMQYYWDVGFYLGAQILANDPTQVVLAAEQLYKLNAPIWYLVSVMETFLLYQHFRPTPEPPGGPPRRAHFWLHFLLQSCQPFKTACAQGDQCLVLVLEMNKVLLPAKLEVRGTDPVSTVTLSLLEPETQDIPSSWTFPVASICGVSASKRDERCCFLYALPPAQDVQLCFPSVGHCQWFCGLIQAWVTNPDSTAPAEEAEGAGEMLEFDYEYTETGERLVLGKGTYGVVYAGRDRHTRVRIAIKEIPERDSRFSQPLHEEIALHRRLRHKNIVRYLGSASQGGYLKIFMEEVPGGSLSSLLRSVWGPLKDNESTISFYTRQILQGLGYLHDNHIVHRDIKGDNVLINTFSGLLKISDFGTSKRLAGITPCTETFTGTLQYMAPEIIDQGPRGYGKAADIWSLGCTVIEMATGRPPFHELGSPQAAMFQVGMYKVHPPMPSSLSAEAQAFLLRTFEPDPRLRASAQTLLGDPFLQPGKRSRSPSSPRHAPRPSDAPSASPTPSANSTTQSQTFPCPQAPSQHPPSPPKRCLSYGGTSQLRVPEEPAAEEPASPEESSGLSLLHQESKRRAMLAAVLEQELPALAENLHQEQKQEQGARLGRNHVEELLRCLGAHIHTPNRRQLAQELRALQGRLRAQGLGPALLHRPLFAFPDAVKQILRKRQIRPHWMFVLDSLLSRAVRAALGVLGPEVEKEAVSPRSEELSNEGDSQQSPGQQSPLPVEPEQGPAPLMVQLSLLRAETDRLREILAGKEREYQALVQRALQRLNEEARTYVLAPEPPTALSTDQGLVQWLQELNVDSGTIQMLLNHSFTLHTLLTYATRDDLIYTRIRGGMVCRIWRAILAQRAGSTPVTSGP

[1] = target: T6, ABL1(M351T)-phosphorylated (Homo sapiens, UniProt P00519, M351T)
T6 construct: purchased Eurofins DiscoverX KINOMEscan

CLK4 = target: T7, CLK4 (Homo sapiens, UniProt Q9HAZ1)
T7 construct: purchased Eurofins DiscoverX KINOMEscan

PRKCQ = target: T8, PRKCQ (Homo sapiens, UniProt Q04759)
T8 construct: purchased Eurofins DiscoverX KINOMEscan

TXK = target: T9, TXK (Homo sapiens, UniProt P42681)
T9 construct: purchased Eurofins DiscoverX KINOMEscan
T9 sequence (P42681 1-527): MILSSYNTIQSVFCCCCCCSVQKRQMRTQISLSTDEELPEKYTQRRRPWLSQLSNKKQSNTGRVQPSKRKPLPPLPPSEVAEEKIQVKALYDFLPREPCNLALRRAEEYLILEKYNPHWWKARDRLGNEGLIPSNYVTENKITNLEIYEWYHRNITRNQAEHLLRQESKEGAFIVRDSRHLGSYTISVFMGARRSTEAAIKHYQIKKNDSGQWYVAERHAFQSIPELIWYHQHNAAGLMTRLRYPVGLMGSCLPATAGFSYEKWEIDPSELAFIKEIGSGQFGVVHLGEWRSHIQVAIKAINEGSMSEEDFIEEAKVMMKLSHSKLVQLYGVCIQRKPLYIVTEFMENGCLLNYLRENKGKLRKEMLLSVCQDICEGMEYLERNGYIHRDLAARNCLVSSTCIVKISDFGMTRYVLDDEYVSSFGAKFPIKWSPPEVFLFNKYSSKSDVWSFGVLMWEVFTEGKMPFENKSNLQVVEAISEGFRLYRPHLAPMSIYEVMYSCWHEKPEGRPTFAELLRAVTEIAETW

[2] = target: T10, ABL1(F317L)-phosphorylated (Homo sapiens, UniProt P00519, F317L)
T10 construct: purchased Eurofins DiscoverX KINOMEscan

T3 sequence (Q13523 whole entry): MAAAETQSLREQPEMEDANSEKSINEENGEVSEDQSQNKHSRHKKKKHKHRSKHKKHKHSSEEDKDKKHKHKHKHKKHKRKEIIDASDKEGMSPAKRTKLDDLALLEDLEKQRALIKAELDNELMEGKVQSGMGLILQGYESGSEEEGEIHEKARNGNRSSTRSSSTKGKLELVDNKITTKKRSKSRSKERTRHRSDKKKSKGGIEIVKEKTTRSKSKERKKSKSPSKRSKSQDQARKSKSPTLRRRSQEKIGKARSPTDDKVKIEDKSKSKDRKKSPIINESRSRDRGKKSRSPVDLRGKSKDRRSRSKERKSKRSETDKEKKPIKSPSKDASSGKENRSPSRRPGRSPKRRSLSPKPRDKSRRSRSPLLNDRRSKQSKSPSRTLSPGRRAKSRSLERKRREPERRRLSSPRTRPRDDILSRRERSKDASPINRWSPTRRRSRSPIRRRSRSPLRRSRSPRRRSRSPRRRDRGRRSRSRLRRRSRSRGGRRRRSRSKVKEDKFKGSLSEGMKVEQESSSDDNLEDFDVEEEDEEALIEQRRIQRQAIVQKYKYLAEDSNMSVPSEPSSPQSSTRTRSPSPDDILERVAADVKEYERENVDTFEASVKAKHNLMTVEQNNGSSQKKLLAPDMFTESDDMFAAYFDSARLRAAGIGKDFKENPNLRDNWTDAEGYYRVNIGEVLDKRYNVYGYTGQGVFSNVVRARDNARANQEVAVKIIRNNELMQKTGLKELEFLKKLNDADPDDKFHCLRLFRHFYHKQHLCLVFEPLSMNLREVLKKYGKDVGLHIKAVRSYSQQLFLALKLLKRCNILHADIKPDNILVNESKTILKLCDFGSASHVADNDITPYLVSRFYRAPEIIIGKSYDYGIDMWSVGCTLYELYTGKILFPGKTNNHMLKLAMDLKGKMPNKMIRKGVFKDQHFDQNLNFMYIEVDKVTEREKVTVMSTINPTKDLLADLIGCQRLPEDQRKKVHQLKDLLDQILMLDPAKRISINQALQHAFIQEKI
T7 sequence (Q9HAZ1 whole entry): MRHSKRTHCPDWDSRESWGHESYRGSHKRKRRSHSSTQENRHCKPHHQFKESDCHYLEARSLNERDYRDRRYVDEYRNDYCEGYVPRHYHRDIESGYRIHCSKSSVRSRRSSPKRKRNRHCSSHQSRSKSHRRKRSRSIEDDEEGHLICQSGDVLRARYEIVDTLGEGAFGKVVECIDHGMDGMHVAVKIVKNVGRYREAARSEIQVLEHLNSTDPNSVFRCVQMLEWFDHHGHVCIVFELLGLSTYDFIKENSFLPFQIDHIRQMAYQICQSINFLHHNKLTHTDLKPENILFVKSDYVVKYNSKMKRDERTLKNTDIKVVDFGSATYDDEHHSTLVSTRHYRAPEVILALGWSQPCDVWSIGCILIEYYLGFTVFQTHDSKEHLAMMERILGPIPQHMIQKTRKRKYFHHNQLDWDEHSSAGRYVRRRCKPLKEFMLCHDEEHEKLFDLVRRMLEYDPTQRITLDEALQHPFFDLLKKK
T8 sequence (Q04759 whole entry): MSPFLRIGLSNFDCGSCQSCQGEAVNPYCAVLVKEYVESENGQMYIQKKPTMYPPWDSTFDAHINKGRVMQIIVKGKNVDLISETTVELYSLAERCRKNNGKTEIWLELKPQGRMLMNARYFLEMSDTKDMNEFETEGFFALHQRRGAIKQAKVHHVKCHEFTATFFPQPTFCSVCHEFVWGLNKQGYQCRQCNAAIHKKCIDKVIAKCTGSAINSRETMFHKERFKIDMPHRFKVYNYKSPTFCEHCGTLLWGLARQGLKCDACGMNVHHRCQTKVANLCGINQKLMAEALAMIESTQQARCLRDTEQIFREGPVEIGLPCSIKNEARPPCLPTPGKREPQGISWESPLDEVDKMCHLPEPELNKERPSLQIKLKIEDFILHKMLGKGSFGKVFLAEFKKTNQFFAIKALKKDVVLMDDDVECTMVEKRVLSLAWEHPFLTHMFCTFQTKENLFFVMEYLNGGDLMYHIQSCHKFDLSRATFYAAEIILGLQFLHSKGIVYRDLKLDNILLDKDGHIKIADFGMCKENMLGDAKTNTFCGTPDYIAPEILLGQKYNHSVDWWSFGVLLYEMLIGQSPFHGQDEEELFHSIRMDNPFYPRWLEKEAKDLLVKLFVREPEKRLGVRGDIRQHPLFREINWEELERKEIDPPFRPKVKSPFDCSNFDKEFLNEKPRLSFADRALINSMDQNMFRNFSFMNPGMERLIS
T4 sequence (Q9Y463 whole entry): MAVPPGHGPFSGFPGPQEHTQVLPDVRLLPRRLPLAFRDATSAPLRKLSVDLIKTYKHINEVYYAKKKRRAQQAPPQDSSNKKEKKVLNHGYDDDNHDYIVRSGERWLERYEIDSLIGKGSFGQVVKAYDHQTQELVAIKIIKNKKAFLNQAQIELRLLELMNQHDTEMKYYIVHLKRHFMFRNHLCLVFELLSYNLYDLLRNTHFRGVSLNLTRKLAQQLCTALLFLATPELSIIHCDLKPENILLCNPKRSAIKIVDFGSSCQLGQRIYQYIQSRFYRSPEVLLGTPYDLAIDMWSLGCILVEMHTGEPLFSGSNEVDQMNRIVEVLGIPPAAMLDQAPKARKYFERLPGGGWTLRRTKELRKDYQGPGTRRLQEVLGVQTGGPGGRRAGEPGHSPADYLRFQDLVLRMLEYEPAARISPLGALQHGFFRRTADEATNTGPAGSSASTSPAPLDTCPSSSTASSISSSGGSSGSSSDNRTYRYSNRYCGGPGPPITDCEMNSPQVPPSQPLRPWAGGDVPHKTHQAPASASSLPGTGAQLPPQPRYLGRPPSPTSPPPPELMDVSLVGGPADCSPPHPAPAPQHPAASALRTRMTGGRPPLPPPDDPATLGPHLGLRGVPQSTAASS
T2 sequence (Q8WU08 whole entry): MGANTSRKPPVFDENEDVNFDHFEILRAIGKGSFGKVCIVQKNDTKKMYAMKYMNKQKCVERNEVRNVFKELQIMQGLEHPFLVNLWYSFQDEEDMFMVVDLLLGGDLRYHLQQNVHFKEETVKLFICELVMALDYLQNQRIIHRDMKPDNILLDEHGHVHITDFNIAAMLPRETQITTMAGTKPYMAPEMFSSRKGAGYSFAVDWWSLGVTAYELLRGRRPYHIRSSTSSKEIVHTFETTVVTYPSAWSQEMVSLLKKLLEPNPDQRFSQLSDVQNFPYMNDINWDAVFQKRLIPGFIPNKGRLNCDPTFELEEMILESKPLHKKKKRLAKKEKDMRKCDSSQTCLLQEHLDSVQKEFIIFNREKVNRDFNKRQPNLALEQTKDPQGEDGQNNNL

Structure (SMILES)	remaining binding at 1 µM (TAK1)	remaining binding at 1 µM (YANK1)	remaining binding at 1 µM (PRP4)	remaining binding at 1 µM (DYRK1B)	remaining binding at 1 µM (ASK2)	remaining binding at 1 µM [1]	remaining binding at 1 µM (CLK4)	remaining binding at 1 µM (PRKCQ)	remaining binding at 1 µM (TXK)	remaining binding at 1 µM [2]
Clc1cc(NCC2CC2)c2ncc(-c3ccc4[nH]ncc4c3)n2n1 [compound 2, 6-Chloro-N-(cyclopropylmethyl)-3-(1H-indazol-5-yl)imidazo[1,2-b]pyridazin-8-amine]	91%	95%	60%	1%	83%	91%	1.5%	94%	85%	60%
O=C(CN1CCOCC1)N[C@H]1CC[C@H](Nc2cc(Cl)nn3c(-c4ccc5[nH]ncc5c4)cnc23)CC1 [compound 26]	47%	98%	97%	0.85%	96%	57%	2.1%	85%	88%	6.2%
CN1CCC(CNc2cc(Cl)nn3c(-c4cc5nc(Nc6ccccc6)[nH]c5cc4F)cnc23)CC1 [compound 31, 6-Chloro-3-(6-fluoro-2-(phenylamino)-1H-benzo[d]imidazol-5-yl)-N-((1-methylpiperidin-4-yl)methyl)imidazo[1,2-b]pyridazin-8-amine]	65%	73%	93%	63%	100%	78%	20%	100%	93%	73%
